Drawing on PubChem BioAssay AID1963840 (Molecular Pharmacology Branch, DTP, NCI, 2024), this text covers viability, T/C for 4 compounds.

Structures are written as SMILES.
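Also: spheroids exposed to compounds for seven days; 100% = DMSO vehicle control viability.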

The first test deals with 695427-040-R-J1-PDC complex spheroid viability. Briefly: Anticancer human tumor 695427-040-R-J1-PDC patient-derived colon adenocarcinoma cell line growth inhibition [POLQ]. Conditions: second compound 0.316 µM; first compound 0.316 µM; hits give low values. In a few lines: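 Growth inhibition in 3D: complex spheroids (tumor PDC, HUVEC, MSC) treated with POLQ inhibitor combinations; where Cmax unknown, highest tested concentration 10 microM, except SN-38 at 1 microM.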
As a reminder, the viability, T/C is the ratio of treated to control. On to `COc1cccc(OCCCN)c1-c1cc(Nc2cnc(C#N)cn2)n[nH]1` + COC1C(OC(N)=O)C(O)C(Oc2ccc3c(O)c(NC(=O)c4ccc(O)c(CC=C(C)C)c4)c(=O)oc3c2C)OC1(C)C, for which the viability, T/C is 54%.

`O=C(c1cc(Cc2n[nH]c(=O)c3ccccc23)ccc1F)N1CCN(C(=O)C2CC2)CC1` + COC1C(OC(N)=O)C(O)C(Oc2ccc3c(O)c(NC(=O)c4ccc(O)c(CC=C(C)C)c4)c(=O)oc3c2C)OC1(C)C: the viability, T/C is 105%.

The test is the same for the next values; noted with them: second compound 0.316 µM; first compound 1 µM; hits give low values.
`CCCS(=O)(=O)Nc1ccc(F)c(C(=O)c2c[nH]c3ncc(-c4ccc(Cl)cc4)cc23)c1F` + COC1C(OC(N)=O)C(O)C(Oc2ccc3c(O)c(NC(=O)c4ccc(O)c(CC=C(C)C)c4)c(=O)oc3c2C)OC1(C)C: the viability, T/C was 105%.

Take `CNCc1ccc(-c2[nH]c3cc(F)cc4c3c2CCNC4=O)cc1` + COC1C(OC(N)=O)C(O)C(Oc2ccc3c(O)c(NC(=O)c4ccc(O)c(CC=C(C)C)c4)c(=O)oc3c2C)OC1(C)C: the viability, T/C is 96.8%.

`COc1cccc(OCCCN)c1-c1cc(Nc2cnc(C#N)cn2)n[nH]1` + COC1C(OC(N)=O)C(O)C(Oc2ccc3c(O)c(NC(=O)c4ccc(O)c(CC=C(C)C)c4)c(=O)oc3c2C)OC1(C)C: the viability, T/C was 39.2%.

Regarding `O=C(c1cc(Cc2n[nH]c(=O)c3ccccc23)ccc1F)N1CCN(C(=O)C2CC2)CC1` + COC1C(OC(N)=O)C(O)C(Oc2ccc3c(O)c(NC(=O)c4ccc(O)c(CC=C(C)C)c4)c(=O)oc3c2C)OC1(C)C, the viability, T/C is 104%.

Staying with this test, now noted: second compound 0.316 µM; first compound 3.16 µM; hits give low values.
Turning to `CCCS(=O)(=O)Nc1ccc(F)c(C(=O)c2c[nH]c3ncc(-c4ccc(Cl)cc4)cc23)c1F` + COC1C(OC(N)=O)C(O)C(Oc2ccc3c(O)c(NC(=O)c4ccc(O)c(CC=C(C)C)c4)c(=O)oc3c2C)OC1(C)C, the viability, T/C is 118%.

For `CNCc1ccc(-c2[nH]c3cc(F)cc4c3c2CCNC4=O)cc1` + COC1C(OC(N)=O)C(O)C(Oc2ccc3c(O)c(NC(=O)c4ccc(O)c(CC=C(C)C)c4)c(=O)oc3c2C)OC1(C)C, the viability, T/C was 115%.

Turning to `O=C(c1cc(Cc2n[nH]c(=O)c3ccccc23)ccc1F)N1CCN(C(=O)C2CC2)CC1` + COC1C(OC(N)=O)C(O)C(Oc2ccc3c(O)c(NC(=O)c4ccc(O)c(CC=C(C)C)c4)c(=O)oc3c2C)OC1(C)C, the viability, T/C was 114%.

The test is the same for the next values; noted with them: second compound 0.316 µM; first compound 10 µM; hits give low values.
Regarding `CCCS(=O)(=O)Nc1ccc(F)c(C(=O)c2c[nH]c3ncc(-c4ccc(Cl)cc4)cc23)c1F` + COC1C(OC(N)=O)C(O)C(Oc2ccc3c(O)c(NC(=O)c4ccc(O)c(CC=C(C)C)c4)c(=O)oc3c2C)OC1(C)C, the viability, T/C was 88.7%.

With `CNCc1ccc(-c2[nH]c3cc(F)cc4c3c2CCNC4=O)cc1` + COC1C(OC(N)=O)C(O)C(Oc2ccc3c(O)c(NC(=O)c4ccc(O)c(CC=C(C)C)c4)c(=O)oc3c2C)OC1(C)C, the viability, T/C is 105%.

For the compound `O=C(c1cc(Cc2n[nH]c(=O)c3ccccc23)ccc1F)N1CCN(C(=O)C2CC2)CC1` + COC1C(OC(N)=O)C(O)C(Oc2ccc3c(O)c(NC(=O)c4ccc(O)c(CC=C(C)C)c4)c(=O)oc3c2C)OC1(C)C, the viability, T/C was 108%.

Staying with this test, now noted: second compound 1 µM; first compound 0.00316 µM; hits give low values.
Turning to `COc1cccc(OCCCN)c1-c1cc(Nc2cnc(C#N)cn2)n[nH]1` + COC1C(OC(N)=O)C(O)C(Oc2ccc3c(O)c(NC(=O)c4ccc(O)c(CC=C(C)C)c4)c(=O)oc3c2C)OC1(C)C, the viability, T/C was 102%.

The test is the same for the next values; noted with them: second compound 1 µM; first compound 0.01 µM; hits give low values.
Regarding `COc1cccc(OCCCN)c1-c1cc(Nc2cnc(C#N)cn2)n[nH]1` + COC1C(OC(N)=O)C(O)C(Oc2ccc3c(O)c(NC(=O)c4ccc(O)c(CC=C(C)C)c4)c(=O)oc3c2C)OC1(C)C, the viability, T/C is 93.7%.

The test is the same for the next values; noted with them: second compound 1 µM; first compound 0.0316 µM; hits give low values.
Consider `CCCS(=O)(=O)Nc1ccc(F)c(C(=O)c2c[nH]c3ncc(-c4ccc(Cl)cc4)cc23)c1F` + COC1C(OC(N)=O)C(O)C(Oc2ccc3c(O)c(NC(=O)c4ccc(O)c(CC=C(C)C)c4)c(=O)oc3c2C)OC1(C)C, for which the viability, T/C was 102%.

Turning to `CNCc1ccc(-c2[nH]c3cc(F)cc4c3c2CCNC4=O)cc1` + COC1C(OC(N)=O)C(O)C(Oc2ccc3c(O)c(NC(=O)c4ccc(O)c(CC=C(C)C)c4)c(=O)oc3c2C)OC1(C)C, the viability, T/C was 97.6%.

As for `COc1cccc(OCCCN)c1-c1cc(Nc2cnc(C#N)cn2)n[nH]1` + COC1C(OC(N)=O)C(O)C(Oc2ccc3c(O)c(NC(=O)c4ccc(O)c(CC=C(C)C)c4)c(=O)oc3c2C)OC1(C)C, the viability, T/C was 83.7%.

Regarding `O=C(c1cc(Cc2n[nH]c(=O)c3ccccc23)ccc1F)N1CCN(C(=O)C2CC2)CC1` + COC1C(OC(N)=O)C(O)C(Oc2ccc3c(O)c(NC(=O)c4ccc(O)c(CC=C(C)C)c4)c(=O)oc3c2C)OC1(C)C, the viability, T/C was 110%.

Staying with this test, now noted: second compound 1 µM; first compound 0.1 µM; hits give low values.
`CCCS(=O)(=O)Nc1ccc(F)c(C(=O)c2c[nH]c3ncc(-c4ccc(Cl)cc4)cc23)c1F` + COC1C(OC(N)=O)C(O)C(Oc2ccc3c(O)c(NC(=O)c4ccc(O)c(CC=C(C)C)c4)c(=O)oc3c2C)OC1(C)C: the viability, T/C was 108%.

`CNCc1ccc(-c2[nH]c3cc(F)cc4c3c2CCNC4=O)cc1` + COC1C(OC(N)=O)C(O)C(Oc2ccc3c(O)c(NC(=O)c4ccc(O)c(CC=C(C)C)c4)c(=O)oc3c2C)OC1(C)C: the viability, T/C is 95%.

For `COc1cccc(OCCCN)c1-c1cc(Nc2cnc(C#N)cn2)n[nH]1` + COC1C(OC(N)=O)C(O)C(Oc2ccc3c(O)c(NC(=O)c4ccc(O)c(CC=C(C)C)c4)c(=O)oc3c2C)OC1(C)C, the viability, T/C was 66.3%.

Regarding `O=C(c1cc(Cc2n[nH]c(=O)c3ccccc23)ccc1F)N1CCN(C(=O)C2CC2)CC1` + COC1C(OC(N)=O)C(O)C(Oc2ccc3c(O)c(NC(=O)c4ccc(O)c(CC=C(C)C)c4)c(=O)oc3c2C)OC1(C)C, the viability, T/C was 105%.

The same test, now with this note: second compound 1 µM; first compound 0.316 µM; hits give low values.
Regarding `CCCS(=O)(=O)Nc1ccc(F)c(C(=O)c2c[nH]c3ncc(-c4ccc(Cl)cc4)cc23)c1F` + COC1C(OC(N)=O)C(O)C(Oc2ccc3c(O)c(NC(=O)c4ccc(O)c(CC=C(C)C)c4)c(=O)oc3c2C)OC1(C)C, the viability, T/C was 102%.

Turning to `CNCc1ccc(-c2[nH]c3cc(F)cc4c3c2CCNC4=O)cc1` + COC1C(OC(N)=O)C(O)C(Oc2ccc3c(O)c(NC(=O)c4ccc(O)c(CC=C(C)C)c4)c(=O)oc3c2C)OC1(C)C, the viability, T/C was 105%.

For the compound `COc1cccc(OCCCN)c1-c1cc(Nc2cnc(C#N)cn2)n[nH]1` + COC1C(OC(N)=O)C(O)C(Oc2ccc3c(O)c(NC(=O)c4ccc(O)c(CC=C(C)C)c4)c(=O)oc3c2C)OC1(C)C, the viability, T/C is 53.9%.

Regarding `O=C(c1cc(Cc2n[nH]c(=O)c3ccccc23)ccc1F)N1CCN(C(=O)C2CC2)CC1` + COC1C(OC(N)=O)C(O)C(Oc2ccc3c(O)c(NC(=O)c4ccc(O)c(CC=C(C)C)c4)c(=O)oc3c2C)OC1(C)C, the viability, T/C was 104%.

The same test, now with this note: second compound 1 µM; first compound 1 µM; hits give low values.
Take `CCCS(=O)(=O)Nc1ccc(F)c(C(=O)c2c[nH]c3ncc(-c4ccc(Cl)cc4)cc23)c1F` + COC1C(OC(N)=O)C(O)C(Oc2ccc3c(O)c(NC(=O)c4ccc(O)c(CC=C(C)C)c4)c(=O)oc3c2C)OC1(C)C: the viability, T/C is 109%.

As for `CNCc1ccc(-c2[nH]c3cc(F)cc4c3c2CCNC4=O)cc1` + COC1C(OC(N)=O)C(O)C(Oc2ccc3c(O)c(NC(=O)c4ccc(O)c(CC=C(C)C)c4)c(=O)oc3c2C)OC1(C)C, the viability, T/C is 103%.

Turning to `COc1cccc(OCCCN)c1-c1cc(Nc2cnc(C#N)cn2)n[nH]1` + COC1C(OC(N)=O)C(O)C(Oc2ccc3c(O)c(NC(=O)c4ccc(O)c(CC=C(C)C)c4)c(=O)oc3c2C)OC1(C)C, the viability, T/C was 38.1%.

For the compound `O=C(c1cc(Cc2n[nH]c(=O)c3ccccc23)ccc1F)N1CCN(C(=O)C2CC2)CC1` + COC1C(OC(N)=O)C(O)C(Oc2ccc3c(O)c(NC(=O)c4ccc(O)c(CC=C(C)C)c4)c(=O)oc3c2C)OC1(C)C, the viability, T/C was 106%.

Still in this test, the particulars now being: second compound 1 µM; first compound 3.16 µM; hits give low values.
Regarding `CCCS(=O)(=O)Nc1ccc(F)c(C(=O)c2c[nH]c3ncc(-c4ccc(Cl)cc4)cc23)c1F` + COC1C(OC(N)=O)C(O)C(Oc2ccc3c(O)c(NC(=O)c4ccc(O)c(CC=C(C)C)c4)c(=O)oc3c2C)OC1(C)C, the viability, T/C was 107%.

`CNCc1ccc(-c2[nH]c3cc(F)cc4c3c2CCNC4=O)cc1` + COC1C(OC(N)=O)C(O)C(Oc2ccc3c(O)c(NC(=O)c4ccc(O)c(CC=C(C)C)c4)c(=O)oc3c2C)OC1(C)C: the viability, T/C is 112%.

Turning to `O=C(c1cc(Cc2n[nH]c(=O)c3ccccc23)ccc1F)N1CCN(C(=O)C2CC2)CC1` + COC1C(OC(N)=O)C(O)C(Oc2ccc3c(O)c(NC(=O)c4ccc(O)c(CC=C(C)C)c4)c(=O)oc3c2C)OC1(C)C, the viability, T/C is 117%.

The same test, now with this note: second compound 1 µM; first compound 10 µM; hits give low values.
For `CCCS(=O)(=O)Nc1ccc(F)c(C(=O)c2c[nH]c3ncc(-c4ccc(Cl)cc4)cc23)c1F` + COC1C(OC(N)=O)C(O)C(Oc2ccc3c(O)c(NC(=O)c4ccc(O)c(CC=C(C)C)c4)c(=O)oc3c2C)OC1(C)C, the viability, T/C is 81.7%.

`CNCc1ccc(-c2[nH]c3cc(F)cc4c3c2CCNC4=O)cc1` + COC1C(OC(N)=O)C(O)C(Oc2ccc3c(O)c(NC(=O)c4ccc(O)c(CC=C(C)C)c4)c(=O)oc3c2C)OC1(C)C: the viability, T/C is 115%.

Turning to `O=C(c1cc(Cc2n[nH]c(=O)c3ccccc23)ccc1F)N1CCN(C(=O)C2CC2)CC1` + COC1C(OC(N)=O)C(O)C(Oc2ccc3c(O)c(NC(=O)c4ccc(O)c(CC=C(C)C)c4)c(=O)oc3c2C)OC1(C)C, the viability, T/C was 101%.

Staying with this test, now noted: second compound 3.16 µM; first compound 0.00316 µM; hits give low values.
For the compound `COc1cccc(OCCCN)c1-c1cc(Nc2cnc(C#N)cn2)n[nH]1` + COC1C(OC(N)=O)C(O)C(Oc2ccc3c(O)c(NC(=O)c4ccc(O)c(CC=C(C)C)c4)c(=O)oc3c2C)OC1(C)C, the viability, T/C is 107%.

The test is the same for the next values; noted with them: second compound 3.16 µM; first compound 0.01 µM; hits give low values.
As to `COc1cccc(OCCCN)c1-c1cc(Nc2cnc(C#N)cn2)n[nH]1` + COC1C(OC(N)=O)C(O)C(Oc2ccc3c(O)c(NC(=O)c4ccc(O)c(CC=C(C)C)c4)c(=O)oc3c2C)OC1(C)C, the viability, T/C is 95.1%.

Staying with this test, now noted: second compound 3.16 µM; first compound 0.0316 µM; hits give low values.
As for `CCCS(=O)(=O)Nc1ccc(F)c(C(=O)c2c[nH]c3ncc(-c4ccc(Cl)cc4)cc23)c1F` + COC1C(OC(N)=O)C(O)C(Oc2ccc3c(O)c(NC(=O)c4ccc(O)c(CC=C(C)C)c4)c(=O)oc3c2C)OC1(C)C, the viability, T/C is 110%.

Consider `CNCc1ccc(-c2[nH]c3cc(F)cc4c3c2CCNC4=O)cc1` + COC1C(OC(N)=O)C(O)C(Oc2ccc3c(O)c(NC(=O)c4ccc(O)c(CC=C(C)C)c4)c(=O)oc3c2C)OC1(C)C, for which the viability, T/C was 101%.

As for `COc1cccc(OCCCN)c1-c1cc(Nc2cnc(C#N)cn2)n[nH]1` + COC1C(OC(N)=O)C(O)C(Oc2ccc3c(O)c(NC(=O)c4ccc(O)c(CC=C(C)C)c4)c(=O)oc3c2C)OC1(C)C, the viability, T/C is 86.3%.

For `O=C(c1cc(Cc2n[nH]c(=O)c3ccccc23)ccc1F)N1CCN(C(=O)C2CC2)CC1` + COC1C(OC(N)=O)C(O)C(Oc2ccc3c(O)c(NC(=O)c4ccc(O)c(CC=C(C)C)c4)c(=O)oc3c2C)OC1(C)C, the viability, T/C is 97.1%.
